The record followed here is patent publication US20230192705A1, “SHP2 INHIBITORS, COMPOSITIONS AND USES THEREOF” (Betta Pharmaceuticals Co., Ltd, priority 2020, published 2023).

One test deals with T1, hERG channel (Homo sapiens, UniProt Q12809).
T1 construct: expressed in transfected cells; host or cells: HEK-293
Nature of the test: Patch clamp assay to test the effect of compound on hERG channel. It counts as cell-based. Particulars: manual patch clamp, HEK 293 cells expressed with hERG, concentration for half maximum effect. As to the method:
10 mL extracellular solution was used to dilute the stock solution, making the final concentrations of test compound were 0.3 μM, 1 μM, 3 μM, 10 μM and 30 μM.
The solubility of compound was visually observed.
The cell line was derived from HEK-293 cells, and grown in a humidified environment at 37° C. under 5% CO2, using the media formulation below. The cell line should not be allowed to exceed 80% confluence within the culture vessel to prevent contact inhibition causing senescence and should thus be passaged every 3/4 days using a seeding density of 2*10^6 cells per T175 flask. Cell lines were be pre-washed with phosphate buffered saline before harvesting with Trypsin/EDTA and seeded into new flasks.
HEK 293 cells expressed with hERG were plated on cover slips overnight with the cell density less than 50% of confluence. Cells used for electrophysiological study were transferred to a small cell bath (1 mL) mounted on the stage of an inverted microscope (Diaphot, Nikon) and were perfused with external solution containing (in mM) 130 NaCl, 4 KCl, 1.8 CaCl2), 1 MgCl2, 10 glucose and 10 HEPES (pH 7.4 with NaOH), the perfusion rate was 4 mL/min. The internal pipette solution contained (in mM) 130 KCl, 1 MgCl2, 5 ethylene glycol-bis(baminoethyl ether)-N,N,N8,N8-tetraacetic acid, 5 MgATP and 10 HEPES (pH 7.2 with KOH). An HEKA EPC-10 patch-clamp amplifier and PATCHMASTER acquisition program were used to record membrane currents (HEKA Instruments IncD-67466 Lambrecht/Pfalz Germany). All experiments were performed at room temperature (22-23° C.).
The Model P-97 micropipette puller (Sutter Instrument Company, One Digital Drive, Novato, Calif. 94949) was used to pull glass patch pipettes (BF150-86-10) in all experiments.
The experiments were initiated with a 2 min vehicle control period after forming a whole cell configuration with less 5% run-down in 5 min and the tail currents in the report were at least greater than 500 pA. After a 2 min vehicle control period, the perfusion was switched to the reservoir containing the compound at the first concentration. The same procedure was repeated 3-5 times so that each cell was exposed to 4-6 escalating concentrations of compound. The time courses for block and unblock of hERG during compounds exposure and washout were continuously recorded.
The peak tail of hERG was generated by applying 2-sec depolarizing every 12 sec steps from a holding potential of −80 mV, the peak of tail currents were measured at a 5-sec repolarizing pulse at −50 mV.
hERG peak tail currents were directly measured from a 5 sec repolarization pulse at −50 mV. The fraction of control current was plotted as a function of logarithm of compound concentration. To determine the concentration of compound for halfmaximum effect, the concentration-response curve was fitted by Hill equation as shown follow.
where Y is the observed value, Bottom is the lowest observed value (0), Top is the highest observed value (1), and the Hillcoefficient gives the largest absolute value of the slope of the curve.
Data were analyzed by a combination of PATCHMASTER ((HEKA Instruments IncD-67466 Lambrecht/Pfalz Germany) and Origin (OriginLab Corporation, Northampton, Mass.) software programs.
Data were expressed as mean±SEM.
(The patch-clamp technique gives a direct electrical read-out from membranes.)

Another test deals with T2, SHP2 (Homo sapiens, UniProt Q06124).
T2 sequence (Q06124 1-593): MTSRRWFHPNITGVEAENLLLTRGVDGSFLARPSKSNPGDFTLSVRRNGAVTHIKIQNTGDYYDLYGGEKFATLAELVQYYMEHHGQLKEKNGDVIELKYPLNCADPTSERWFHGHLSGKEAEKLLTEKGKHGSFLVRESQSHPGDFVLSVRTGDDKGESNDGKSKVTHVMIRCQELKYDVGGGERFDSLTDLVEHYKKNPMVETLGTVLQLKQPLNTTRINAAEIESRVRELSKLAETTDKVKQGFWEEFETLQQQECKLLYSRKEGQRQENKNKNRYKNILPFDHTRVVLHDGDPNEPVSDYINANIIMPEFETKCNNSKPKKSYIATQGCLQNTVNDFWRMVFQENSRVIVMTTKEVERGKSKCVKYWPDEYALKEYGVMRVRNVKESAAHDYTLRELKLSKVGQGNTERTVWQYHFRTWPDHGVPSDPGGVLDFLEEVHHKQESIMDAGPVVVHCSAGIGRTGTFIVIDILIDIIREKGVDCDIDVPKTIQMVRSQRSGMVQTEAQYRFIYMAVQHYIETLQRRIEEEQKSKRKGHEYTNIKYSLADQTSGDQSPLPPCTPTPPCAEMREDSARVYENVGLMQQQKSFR
Nature of the test: SHP2 allosteric inhibitor enzyme activity assay (DiFMUP fluorescence). The format is biochemical. In a few lines:
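SHP2 activated by 0.5 μM IRS1_pY1172(dPEG8)pY1222 peptide, 0.2 ng enzyme per well, 1 h at room temperature with compound (1 μM top, 3-fold series), then DiFMUP substrate 1 h. Buffer: 60 mM HEPES, 75 mM NaCl, 75 mM KCl, 0.05% BRIJ-35, 1 mM EDTA, 5 mM DTT. Fluorescence ex 340/em 450 nm; IC50 by variable-slope fit.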

Some results are limits rather than exact numbers.

As a reminder, the IC50 is the midpoint of a concentration-inhibition curve.

T1 sequence (Q12809 whole entry): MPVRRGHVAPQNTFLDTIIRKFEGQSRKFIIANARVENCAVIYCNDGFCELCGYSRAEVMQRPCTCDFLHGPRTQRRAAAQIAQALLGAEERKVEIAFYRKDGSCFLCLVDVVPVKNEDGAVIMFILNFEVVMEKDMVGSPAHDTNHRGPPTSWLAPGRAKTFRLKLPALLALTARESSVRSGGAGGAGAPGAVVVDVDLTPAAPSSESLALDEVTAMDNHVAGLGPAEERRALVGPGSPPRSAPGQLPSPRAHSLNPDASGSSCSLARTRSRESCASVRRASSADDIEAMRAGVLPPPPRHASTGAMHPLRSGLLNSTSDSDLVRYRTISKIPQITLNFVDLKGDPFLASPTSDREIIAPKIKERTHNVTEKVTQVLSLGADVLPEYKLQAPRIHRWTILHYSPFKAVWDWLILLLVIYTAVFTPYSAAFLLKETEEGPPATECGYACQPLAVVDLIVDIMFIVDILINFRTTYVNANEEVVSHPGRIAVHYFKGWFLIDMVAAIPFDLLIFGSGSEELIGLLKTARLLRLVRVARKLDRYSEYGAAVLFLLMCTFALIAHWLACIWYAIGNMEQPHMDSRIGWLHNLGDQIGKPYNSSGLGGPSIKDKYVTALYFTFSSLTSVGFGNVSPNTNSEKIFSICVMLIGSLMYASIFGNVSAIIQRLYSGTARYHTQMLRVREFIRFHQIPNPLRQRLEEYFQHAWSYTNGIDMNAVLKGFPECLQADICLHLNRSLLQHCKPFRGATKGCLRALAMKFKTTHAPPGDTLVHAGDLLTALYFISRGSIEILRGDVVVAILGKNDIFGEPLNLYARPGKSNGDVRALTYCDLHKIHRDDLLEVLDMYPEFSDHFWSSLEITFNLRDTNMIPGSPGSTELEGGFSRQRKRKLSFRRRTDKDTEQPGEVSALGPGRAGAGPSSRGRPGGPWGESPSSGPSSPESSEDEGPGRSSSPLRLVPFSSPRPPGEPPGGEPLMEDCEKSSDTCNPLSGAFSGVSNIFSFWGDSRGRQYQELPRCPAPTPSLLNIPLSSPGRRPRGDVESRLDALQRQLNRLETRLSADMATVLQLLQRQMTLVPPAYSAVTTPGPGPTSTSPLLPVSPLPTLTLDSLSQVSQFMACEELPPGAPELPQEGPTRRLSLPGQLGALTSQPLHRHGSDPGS

For the compound `Cn1c(N2CCC3(CC2)Cc2ccccc2[C@H]3N)nc2[nH]nc(C3(c4ccccc4)CC3)c2c1=O` [Example 1], the results for the IC50 on hERG channel and against SHP2 (class symbols) were 1.76 µM and no more than 20 nM, respectively.

As for `N[C@@H]1c2ccccc2CC12CCN(c1nc3[nH]nc(C4(c5cccc(F)c5)CC4)c3c(=O)[nH]1)CC2` [Example 6, (S)-6-(1-amino-1,3-dihydrospiro[indene-2,4′-piperidin]-1′-yl)-3-(1-(3-fluorophenyl)cyclopropyl)-1,5-dihydro-4H-pyrazolo[3,4-d]pyrimidin-4-one], on SHP2 (numeric values), half-maximal inhibition (IC50) was put at 0.62 nM.

On SHP2 (numeric values), `N[C@@H]1c2ccccc2CC12CCN(c1nc3[nH]nc(C4(c5cccc(C(F)(F)F)c5)CC4)c3c(=O)[nH]1)CC2` [Example 8, (S)-6-(1-amino-1,3-dihydrospiro[indene-2,4′-piperidin]-1′-yl)-3-(1-(3-(trifluoromethyl)plienyl)cyclo-propyl)-1,5-dihydro-4H-pyrazolo[3,4-d]pyrimidin-4-one] yielded an IC50 of 2.2 nM.

On to `N[C@@H]1c2ccccc2CC12CCN(c1nc3[nH]nc(C4(c5ccccc5)CC4(F)F)c3c(=O)[nH]1)CC2` (stereo partly drawn) [Example 9, 6-((S)-1-amino-1,3-dihydrospiro[indene-2,4′-piperidin]-1′-yl)-3-(2,2-difluoro-1-phenylcyclopropyl)-1,5-dihydro-4H-pyrazolo[3,4-d]pyrimidin-4-one], for which the IC50 is 10.4 µM on hERG channel and no more than 20 nM against SHP2 (class symbols).

On SHP2 (class symbols), `N[C@@H]1c2ccccc2CC12CCN(c1nc3[nH]nc(C4(c5ccc(F)cc5)CC4)c3c(=O)[nH]1)CC2` [Example 11, (S)-6-(1-amino-1,3-dihydrospiro[indene-2,4′-piperidin]-1′-yl)-3-(1-(4-fluorophenyl)cyclopropyl)-1,5-dihydro-4H-pyrazolo[3,4-d]pyrimidin-4-one] showed a half-maximal inhibitory concentration (IC50) of no more than 20 nM.

Consider `N[C@@H]1c2ccccc2CC12CCN(c1nc3[nH]nc(C4(c5ccc6c(c5)OC(F)(F)O6)CC4)c3c(=O)[nH]1)CC2` [Example 13, (S)-6-(1-amino-1,3-dihydrospiro[indene-2,4′-piperidin]-1′-yl)-3-(1-(2,2-difluorobenzo[d][1,3]dioxol-5-yl)cyclopropyl)-1,5-dihydro-4H-pyrazolo[3,4-d]pyrimidin-4-one], for which the IC50 against SHP2 (class symbols) is no more than 20 nM.

`N[C@@H]1c2ccccc2CC12CCN(c1nc3[nH]nc(C4(c5ccc(Cl)c(Cl)c5)CC4)c3c(=O)[nH]1)CC2` [Example 21, (S)-6-(1-amino-1,3-dihydrospiro[indene-2,4′-piperidin]-1′-yl)-3-(1-(3,4-dichlorophenyl)cyclopropyl)-1,5-dihydro-4H-pyrazolo[3,4-d]pyrimidin-4-one] showed a concentration for half-maximal inhibition (IC50) against SHP2 (class symbols) of no more than 20 nM.

As for `N[C@@H]1c2ccccc2CC12CCN(c1nc3[nH]nc(C4(c5cccs5)CC4)c3c(=O)[nH]1)CC2` [Example 24, (S)-6-(1-amino-1,3-dihydrospiro[indene-2,4′-piperidin]-1′-yl)-3-(1-(thiophen-2-yl)cyclopropyl)-1,5-dihydro-4H-pyrazolo[3,4-d]pyrimidin-4-one], the IC50 on hERG channel turned out to be 14.8 µM; at SHP2 (numeric values), 1.6 nM.

As to `N[C@@H]1c2ccccc2CC12CCN(c1nc3[nH]nc(C4(c5ccccc5)CC4)c3c(=O)[nH]1)CC2` [Example 33], the 50% inhibitory concentration (IC50) came to 9.5 µM at hERG channel and 0.9 nM against SHP2 (numeric values).

For the compound `N[C@@H]1c2ccccc2CC12CCN(c1nc3[nH]nc(C4(c5ccc6c(c5)OCO6)CC4)c3c(=O)[nH]1)CC2` [Example 34, (S)-6-(1-amino-1,3-dihydrospiro[indene-2,4′-piperidin]-1′-yl)-3-(1-(benzo[d][1,3]dioxol-5-yl)cyclopropyl)-1,5-dihydro-4H-pyrazolo[3,4-d]pyrimidin-4-one], the IC50 at hERG channel worked out at 6.9 µM; against SHP2 (numeric values), 2.7 nM.

With `N[C@@H]1c2ccccc2CC12CCN(c1nc3[nH]nc(C4(c5ccccc5)COC4)c3c(=O)[nH]1)CC2` [Example 96, (S)-6-(1-amino-1,3-dihydrospiro[indene-2,4′-piperidin]-1′-yl)-3-(3-phenyloxetan-3-yl)-1,5-dihydro-4H-pyrazolo[3,4-d]pyrimidin-4-one], the values for the IC50 on hERG channel and against SHP2 (class symbols) were greater than 30 µM and no more than 20 nM, respectively.

Regarding `N[C@@H]1c2ccccc2CC12CCN(c1nc3[nH]nc(C4(c5ccc(C(F)(F)F)cc5)CC4)c3c(=O)[nH]1)CC2` [Example 228, (S)-6-(1-amino-1,3-dihydrospiro[indene-2,4′-piperidin]-1′-yl)-3-(1-(4-(trifluoromethyl)phenyl)cyclo-propyl)-1,5-dihydro-4H-pyrazolo[3,4-d]pyrimidin-4-one], the IC50 at SHP2 (class symbols) is no more than 20 nM.

For `Nc1ccc(C2(c3n[nH]c4nc(N5CCC6(CC5)Cc5ccccc5[C@H]6N)[nH]c(=O)c34)CC2)cc1` [Example 230, (S)-6-(1-amino-1,3-dihydrospiro[indene-2,4′-piperidin]-1′-yl)-3-(1-(4-aminophenyl)cyclopropyl)-1,5-dihydro-4H-pyrazolo[3,4-d]pyrimidin-4-one], the figures for the IC50 at hERG channel and at SHP2 (class symbols) were greater than 30 µM and no more than 20 nM, respectively.

In the case of `N[C@@H]1c2ccccc2CC12CCN(c1nc3[nH]nc(C4(c5ccc(O)cc5)CC4)c3c(=O)[nH]1)CC2` [Example 234, (S)-6-(1-amino-1,3-dihydrospiro[indene-2,4′-piperidin]-1′-yl)-3-(1-(4-hydroxyphenyl)cyclopropyl)-1,5-dihydro-4H-pyrazolo[3,4-d]pyrimidin-4-one], the IC50 at hERG channel is greater than 30 µM; on SHP2 (class symbols) it was no more than 20 nM.

Take `N#Cc1ccc(C2(c3n[nH]c4nc(N5CCC6(CC5)Cc5ccccc5[C@H]6N)[nH]c(=O)c34)CC2)cc1` [Example 237, (S)-4-(1-(6-(1-amino-1,3-dihydrospiro[indene-2,4′-piperidin]-1′-yl)-4-oxo-4,5-dihydro-1H-pyrazolo[3,4-d]pyrimidin-3-yl)cyclopropyl)benzonitrile]: the IC50 was 7.9 µM at hERG channel and no more than 20 nM against SHP2 (class symbols).

For `N[C@@H]1c2ccccc2CC12CCN(c1nc3[nH]nc(C4(c5csnn5)CC4)c3c(=O)[nH]1)CC2` [Example 240, (S)-3-(1-(1,2,3-thiadiazol-4-yl)cyclopropyl)-6-(1-amino-1,3-dihydrospiro[indene-2,4′-piperidin]-1′-yl)-1,5-dihydro-4H-pyrazolo[3,4-d]pyrimidin-4-one], the IC50 on hERG channel is 17.1 µM; against SHP2 (class symbols), no more than 20 nM.
